Test results taken from US11723910B1, “Compositions and methods for modulating the endothelial barrier” (University of South Florida, priority 2019, dated 2023).

Columns and labels:
HUVEC = test: Seahorse glycolytic rate assay in HUVEC; type: cell-based, human; conditions: Afobazole 300 μM 3 hours prior to the assay vs vehicle
Protocol: FIGS. 2A and 2B show glycolytic PER (glycoPER) and oxygen consumption rate (OCR) obtained from glycolytic rate assay of cells treated with 100 μM PRE-084 or vehicle for 3 hours. […] FIGS. 2D-2H show assay parameters obtained from the glycolytic rate assay. FIGS. 2I-2K show assay parameters from ATP rate assay. *P<0.05.
(§1) HUVEC and media were obtained from LifeLine cell technology, PRE-084 from Tocris Biotechne, and CCCP from Abcam. TER was determined with an Electrical Cell-Substrate Impedance Sensor (ECIS; Applied Biophysics). For transfection, 200 nM σ1 siRNA (SEQ ID NO: 2: GGCUUGAGCUCACCACCUA) or control non-targeting RNA (SEQ ID NO: 3: UGGUUUACAUGUUUUCCUA) purchased from Dharmacon was introduced with the Nucleofector II device (Lonza). Cell culture procedures, TER recordings, and protein isolation and transfection protocols have been previously described. Western blotting was done using WES (Protein Simple). Rabbit anti σ1 was purchased from Novus Biologicals NBP1-82479 and mouse anti (β-actin was from cell signaling #3700. Both primaries were used at 1:50 dilution. Seahorse xfp analyzer was used for glycolytic rate and ATP rate with assay kits (Agilent) according to manufacturer's instructions using 40.000 cells/well. Calculation of assay parameters was done using Wave software with its built-in report generators and statistical analysis was done using Prism 7.

[1] = test system: HUVEC monolayers treated with CCCP; test: CCCP-induced barrier disruption (TER) in HUVEC; type: cell-based, human; conditions: 10 μM CCCP
Protocol: (§2) Because ATP depletion has been reported to disrupt the endothelial barrier (Unno N, et al. (1996) Hyperpermeability and ATP depletion induced by chronic hypoxia or glycolytic inhibition in Caco-2BBe monolayers. Am J Physiol 270(6 Pt 1):G1010-1021), assessment was performed to determine whether carbonyl cyanide m-chlorophenyl hydrazine (CCCP) induced mitochondrial insult causes barrier disruption and whether the barrier-enhancing properties of PRE-084 can counteract this effect. […] To further validate the contribution of σ1 to endothelial barrier function, siRNA was used to selectively reduce σ1 expression in HUVEC.
(§3) HUVEC and media were obtained from LifeLine cell technology, PRE-084 from Tocris Biotechne, and CCCP from Abcam. TER was determined with an Electrical Cell-Substrate Impedance Sensor (ECIS; Applied Biophysics). For transfection, 200 nM σ1 siRNA (SEQ ID NO: 2: […]) or control non-targeting RNA (SEQ ID NO: 3: […]) purchased from Dharmacon was introduced with the Nucleofector II device (Lonza). Cell culture procedures, TER recordings, and protein isolation and transfection protocols have been previously described. Western blotting was done using WES (Protein Simple). […]

[2] = test system: human umbilical vein endothelial cell (HUVEC) monolayers; test: Transendothelial electrical resistance (TER, ECIS) of HUVEC monolayers; type: cell-based; conditions: mean TER at 70 h vs non-targeting RNA
Protocol: as §1

sigma-1 receptor (σ1) = test: Western blot of σ1 expression after siRNA knockdown in HUVEC; type: cell-based, human; conditions: 200 nM σ1 siRNA
Protocol: as §2, §3

## CCOc1ccc2nc(SCCN3CCOCC3)[nH]c2c1 [Afobazole]
HUVEC
  glycolytic proton efflux rate: enhances
  oxygen consumption rate: lowers

## carbonyl cyanide m-chlorophenyl hydrazine [CCCP]
[1]
  transendothelial electrical resistance (TER) after CCCP: significantly lowered

## σ1 siRNA: σ1 siRNA (SEQ ID NO: 2: GGCUUGAGCUCACCACCUA) purchased from Dharmacon (listed as RNA, chemistry not given here)
[2]
  TER in σ1 siRNA-treated cells compared to control: significant decreases
sigma-1 receptor (σ1); 48-h post-transfection
  decrease in σ1 protein compared to controls: 47%
sigma-1 receptor (σ1); 70-h post-transfection
  decrease in σ1 protein compared to controls: 74%
